Patent US8577624B2, “Crystal structure of a plasma membrane proton pump” (Aarhus Universitet, priority 2007, dated 2013)

What was measured:
[1] = target: Sarcoplasmic Endoplasmic Reticulum Ca2+-ATPase (SERCA); conditions: blocking SERCA; cited from earlier work
[2] = target: T1, plasma membrane H+-ATPase (Arabidopsis thaliana, UniProt P19456); assay: Inhibition of H+ ATPase ATP hydrolytic activity by platin and holmium ions (Pi production); type: biochemical; conditions: 20 mM Mops pH 6.5, 50 mM KCl, 8 mM MgCl2, 3 mM ATP; various concentrations; FIG. 12; numbers only in figure
T1 sequence (P19456 1-948): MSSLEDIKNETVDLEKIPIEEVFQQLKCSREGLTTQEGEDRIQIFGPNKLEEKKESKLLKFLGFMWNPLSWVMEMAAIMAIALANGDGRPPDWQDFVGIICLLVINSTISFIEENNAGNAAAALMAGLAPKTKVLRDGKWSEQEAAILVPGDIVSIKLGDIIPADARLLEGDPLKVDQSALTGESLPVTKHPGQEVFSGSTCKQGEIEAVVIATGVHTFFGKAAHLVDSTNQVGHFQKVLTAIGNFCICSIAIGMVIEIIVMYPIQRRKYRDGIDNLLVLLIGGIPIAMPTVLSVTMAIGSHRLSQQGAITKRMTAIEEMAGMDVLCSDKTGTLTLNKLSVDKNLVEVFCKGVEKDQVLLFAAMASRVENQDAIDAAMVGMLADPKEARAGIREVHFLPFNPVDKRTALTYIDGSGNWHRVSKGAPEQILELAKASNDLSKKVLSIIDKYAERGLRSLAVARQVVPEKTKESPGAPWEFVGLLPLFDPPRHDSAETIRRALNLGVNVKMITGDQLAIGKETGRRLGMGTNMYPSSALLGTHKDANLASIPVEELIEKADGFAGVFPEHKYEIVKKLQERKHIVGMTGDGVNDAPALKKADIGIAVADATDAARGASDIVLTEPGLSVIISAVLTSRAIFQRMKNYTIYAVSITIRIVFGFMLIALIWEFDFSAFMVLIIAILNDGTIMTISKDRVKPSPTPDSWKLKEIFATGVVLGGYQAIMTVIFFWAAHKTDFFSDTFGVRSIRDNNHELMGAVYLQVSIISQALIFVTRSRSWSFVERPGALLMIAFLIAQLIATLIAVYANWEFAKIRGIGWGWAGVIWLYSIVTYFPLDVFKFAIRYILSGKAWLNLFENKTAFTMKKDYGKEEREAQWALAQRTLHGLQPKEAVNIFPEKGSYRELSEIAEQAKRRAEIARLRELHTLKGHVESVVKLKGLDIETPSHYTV
Experimental: (§1) Assay conditions are 20 mM Mops, pH: 6.5, 50 mM KCl, 8 mM MgCl2 and 3 mM ATP. Production of Pi was measured by standard […] tests. The results are shown in FIG. 12A and the activity is given as the percentage of the ATP hydrolytic activity in the absence of various concentrations of Pt (±StDev).
as §1, with “12B” for “12A”, “Ho” for “Pt”

[3] = system: plasma membrane H+-ATPases; conditions: vanadate in its plus 5 valence state; cited from earlier work

C/C=C(/C)C(=O)O[C@H]1C(C)=C2[C@H]([C@@H]1OC(=O)CCCCCCC)[C@@](C)(OC(C)=O)C[C@H](OC(=O)CCC)[C@@]1(O)[C@H]2OC(=O)[C@@]1(C)O [thapsigargin]
Kd [1]: sub-nanomolar range

[Ho+3] [Ho]
ATP hydrolytic activity of plasma membrane H+-ATPase [2]: inhibits

[O]=[V]([O-])([O-])[O-] [Vanadate]
concentration at which the pumps are inhibited [3]: μM range
